We go through two compounds from paper PMC12405493, “Selective ubiquitination of drug-like small molecules by the ubiquitin ligase HUWE1” (Nature Communications, 2025).

pIC50: −log10 of the molar value. Some results are limits rather than exact numbers.

Assay [1] addresses T1, vinylthioether-linked HUWE1^HECT-Ub complex (Homo sapiens, UniProt Q7Z6Z7).
T1 construct: The preparation of the vinylthioether-linked HUWE1^HECT-Ub complex was also previously described; made in house; host or cells: bacteria (components)
The experiment in a line: Differential scanning fluorimetry (DSF) with HUWE1^HECT~Ub proxy. It counts as binding. The conditions noted are these: 10 μM protein. The method, then:
DSF was performed in 25 mM HEPES (pH 7.5), 100 mM NaCl, 1 mM TCEP and 0.4% (v/v) DMSO, using a CFX96 Touch Real-Time PCR Detection System (BioRad). 10 μM HUWE1^HECT and HUWE1^HECT-Ub, respectively, at a sample volume of 25 μL were denatured by a linear 25–95 °C gradient over 120 min in a presence of 10 x SYPRO Orange (Invitrogen). Tm-values were determined as the first derivative of the fluorescence curves, using CFX Maestro™ v.1.1 (Bio-Rad). Melting curves were plotted as normalized -d(fluorescence)/dt with Prism v.9.3.1 (GraphPad).
In general terms: In DSF a fluorescence change marks the thermal transition of the protein.

In assay [2] the target is T2, HUWE1^HECT (Homo sapiens, UniProt Q7Z6Z7).
T2 construct: the isolated HECT domain of HUWE1 (HUWE1^HECT); made in house
T2 sequence (Q7Z6Z7 4038-4374 limits assumed): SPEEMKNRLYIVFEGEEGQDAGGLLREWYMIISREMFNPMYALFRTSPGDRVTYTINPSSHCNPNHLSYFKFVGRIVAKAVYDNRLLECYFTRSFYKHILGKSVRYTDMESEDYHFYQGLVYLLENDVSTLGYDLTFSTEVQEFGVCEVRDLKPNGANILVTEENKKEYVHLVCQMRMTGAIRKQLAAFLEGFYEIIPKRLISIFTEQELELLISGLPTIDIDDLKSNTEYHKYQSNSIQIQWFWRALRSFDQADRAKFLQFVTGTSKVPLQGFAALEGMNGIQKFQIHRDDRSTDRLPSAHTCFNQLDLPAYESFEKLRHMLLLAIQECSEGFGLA
The experiment in a line: HDX-MS of HUWE1^HECT with inhibitors. It counts as binding. The conditions noted are these: 10-fold molar excess of inhibitor. As for the experimental part:
Two experiments were performed: 50 μM HUWE1^HECT (1) or HUWE1^HECT-Ub conjugate (2) were incubated with 500 μM of BI8626 or BI8622 for 1 h on ice prior HDX-MS. Individual HDX reactions were generated with a 2-arm autosampler (LEAP Technologies) by mixing 6.5 μL sample with 58.5 μL of HDX buffer (20 mM HEPES pH 8.0, 150 mM NaCl, 5 mM DTT) prepared with 99.9% D2O, incubation at 25 °C for various times, before quenching by mixing 55 μL with an equal volume of 400 mM KH2PO4/H3PO4 (pH 2.2) and 2 M guanidine-HCl (precooled at 1 °C). Non-deuterated samples were generated analogously by 10-fold dilution with H2O-based buffer. […] For each protein state and time-point, three individual HDX reactions were measured.
Peptide identification and HDX analysis was performed with ProteinLynx Global SERVER v.3.0.1 (PLGS; Waters) and DynamX v.3.0 (Waters), as described previously. […] Only peptides with an intensity >10,000 counts, ≤ 30 residues, ≥ 2 products with ≥ 0.05 products/residue, ≤ 25 ppm mass error and retention time tolerance of 0.5 min were analysed. […] The maximal deuterium uptake of a given peptide was calculated by the number of residues minus one for the N-terminal residue and minus the number of prolines. […]

In assay [3] the test system is HUWE1^HECT. Details: method as in PMID 25253726. The conditions noted are these: in vitro; read-out: IC50 of HUWE1^HECT inhibition; cited from earlier work.
In the next assay the test system is other HECT domains. Details: method as in PMID 25253726. The conditions noted are these: in vitro; cited from earlier work.

By pIC50 is commonly meant the negative decadic logarithm of the IC50, by convention in mol/L. In the case of `Cc1c(C(=O)Nc2ccc(CN)cc2)ncnc1N1CCC(C#N)(c2ccccc2)CC1` [BI8622], the “Interaction with HUWE1^HECT-Ub by DSF” value in assay [1] is “no interactions between HUWE1^HECT-Ub and the inhibitors could be detected”. Also, the “Binding to HUWE1^HECT by HDX-MS” value on HUWE1^HECT [2] was “did not provide evidence of binding”. Also, the results for the pIC50 in the assay with HUWE1^HECT [3] and with other HECT domains were 5.51 and < 4.30, respectively.
Consider `NCc1cccc(CNc2ncnc3c(N4CCN(Cc5ccccc5)CC4)ncnc23)c1` [BI8626], for which the “Interaction with HUWE1^HECT-Ub by DSF” value in assay [1] was “no interactions between HUWE1^HECT-Ub and the inhibitors could be detected”. Further, the “Binding to HUWE1^HECT by HDX-MS” value at HUWE1^HECT [2] is given as “did not provide evidence of binding”. Further, the pIC50 is 6.05 with HUWE1^HECT [3] and < 4.30 with other HECT domains.
